Assay results published in patent US8846692B2, “Carboxylic acid derivatives having a 2,5-substituted oxazolopyrimidine ring” (Sanofi, priority 2010, dated 2014).

molecular target: T1, human Edg-1 receptor (Homo sapiens, UniProt P21453); test: GTP-γ-S assay using human Edg-1 receptors (scintillation proximity assay, CHO Flp-In cell membrane preparation); type: biochemical; conditions: test compound at 10 μM; 10 μM S1P high control regarded as 100% activation; triplicate
T1 construct: expressed in transfected cells; membrane preparation
Text: Determination of the Pharmacological Activity A) GTP-γ-S Assay Using Human Edg-1 Receptors
In order to determine the Edg-1 receptor activation by the compounds of the invention, a GTP-γ-S (guanosine 5′-[γ-thio]triphosphate) assay for G-protein coupled receptor binding based on the scintillation proximity assay principle was used, employing a cell membrane preparation from a CHO Flp-In cell line which constitutively overexpresses the human Edg-1 receptor.
A membrane preparation was obtained by standard methods from the afore-described CHO Flp-In cell line constitutively overexpressing the human Edg-1 receptor. Briefly, the cryopreserved cells were taken in culture and grown until confluency in T175 cell culture flasks (Becton Dickinson, cat. no. 35 5001). Cell culture was stopped by washing with calcium-free phosphate-buffered saline (PBS; Gibco, cat. no. 14190), and cells were harvested with a rubber-policeman in 4° C. cold and calcium-free PBS supplemented with a protease inhibitor cocktail (complete protease inhibitor; Roche, cat. no. 1697498; 1 tablet per 50 ml) and subsequently centrifuged at 4° C. for 15 min at 1100×g (Heraeus Minifuge T). For cell lysis, the pellet was resuspended in a 4° C. cold hypotonic buffer consisting of 5 mM HEPES (Sigma-Aldrich, cat. no. H-0981), 1 mM EDTA (disodium salt; Merck, cat. No. 8418) supplemented with protease inhibitor cocktail (as above) in which cells were stored for another 15 min on ice. After lysis, cells were centrifuged at 4° C. for 10 min at 400×g (Heraeus Minifuge T). The pellet was disrupted in a Dounce homogenizer, diluted with the supernatant of the previous centrifugation and subsequently centrifuged at 4° C. for 10 min at 500×g (Heraeus Minifuge T) in order to separate nuclei and still intact cells from the membranes mainly present in the supernatant. The supernatant was then diluted in hypotonic buffer and centrifuged (Beckmann, Avanti J251) at approximately 18600×g for 2 h at 4° C. After centrifugation, the membrane pellet was resuspended in a storing buffer consisting of 20 mM HEPES; 150 mM NaCl (Merck, cat. no. 6400), 1 mM EDTA (as above) supplemented with protease inhibitor cocktail (as above). The membrane preparation was aliquoted and stored at −80° C. Protein concentration of the membrane preparation was determined in a sample by means of a commercial protein assay (Bio-Rad, DC Protein Assay, cat. nos. 500-0113, 500-0114, 500-0115).
The Edg-1 membrane preparation obtained in (b) was employed in a commercially available scintillation proximity assay (SPA) kit for G-protein coupled receptor binding from Amersham Biosciences/GE Healthcare (code RPNQ0210), in which ligand-induced binding of ^35S-radiolabled GTP-γ-S to the receptor-containing membrane, which is bound to scintillation beads, stimulates the emission of light and allows to quantify the in vitro activity of the Edg-1 agonistic compound. The assay was performed on a 96-well plate scale substantially according to the manufacturer's instructions. Before start of the experiments, scintillation beads were suspended in a reconstitution buffer consisting of Tris-HCl (pH 7.4) supplemented with 0.1% (w/v) sodium azide and subsequently diluted on ice with assay buffer (consisting of 20 mM HEPES, 100 mM NaCl, 1 mM EDTA (as above), 1 mM dithiothreitol (DTT), adjusted to pH 7.4) to a final bead concentration of 30 mg/ml.
Wells were charged with 10 μl of the specified assay buffer, 10 μl of a 100 μM guanosine diphosphate (GDP) solution, and 10 μl of a solution of the test compound in assay buffer/dimethylsulfoxide resulting in a final concentration of the test compound of 10 μM. For the high controls, 10 μl of a solution of sphingosine-1-phosphate (S1P; Sigma, cat. no. S-9666), resulting in a final S1P concentration of 10 μM, and for the low controls 10 μl of assay buffer, was added into respective wells instead of the solution of the test compound. All wells contained equivalent amounts of dimethylsulfoxide. […]

T1 sequence (P21453 whole entry): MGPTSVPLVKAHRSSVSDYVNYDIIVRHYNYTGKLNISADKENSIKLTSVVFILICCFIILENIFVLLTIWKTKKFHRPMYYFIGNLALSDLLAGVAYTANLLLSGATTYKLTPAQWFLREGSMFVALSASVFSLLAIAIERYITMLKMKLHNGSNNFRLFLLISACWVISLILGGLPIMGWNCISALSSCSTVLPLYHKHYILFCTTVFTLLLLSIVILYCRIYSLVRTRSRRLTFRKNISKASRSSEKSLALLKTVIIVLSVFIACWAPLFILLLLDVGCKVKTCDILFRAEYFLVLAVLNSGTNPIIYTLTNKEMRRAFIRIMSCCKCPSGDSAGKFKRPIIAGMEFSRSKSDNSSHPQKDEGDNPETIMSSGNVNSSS

| % Activation (Edg-1 receptor activation in percent of the activation by 10 μM S1P) | SMILES |
| --- | --- |
| 74% | Cc1cc(-c2nc3cnc(Oc4cccc(Cl)c4)nc3o2)cc(C)c1OCC(=O)O [Example 8, {4-[5-(3-chloro-phenoxy)-oxazolo[5,4-d]pyrimidin-2-yl]-2,6-dimethyl-phenoxy}-acetic acid] |

same assay, conditions: test compound at 10 μM; 10 μM S1P high control regarded as 100% activation; triplicate; read-out: % Activation (Edg-1 receptor activation in percent of the activation by 10 μM S1P)

| SMILES | activation at 10 µM |
| --- | --- |
| Cc1cc(-c2nc3cnc(Oc4ccccc4)nc3o2)cc(C)c1OCC(=O)O [Example 1, [2,6-Dimethyl-4-(5-phenoxy-oxazolo[5,4-d]pyrimidin-2-yl)-phenoxy]-acetic acid] | 116% |
| O=C(O)/C=C/c1ccc(-c2nc3cnc(Oc4ccccc4F)nc3o2)cc1 [Example 2, (E)-3-{4-[5-(2-Fluoro-phenoxy)-oxazolo[5,4-d]pyrimidin-2-yl]-phenyl}-acrylic acid] | 83% |
| Cc1cc(-c2nc3cnc(Oc4ccc(F)cc4F)nc3o2)cc(C)c1OCC(=O)O [Example 3, {4-[5-(2,4-difluoro-phenoxy)-oxazolo[5,4-d]pyrimidin-2-yl]-2,6-dimethyl-phenoxy}-acetic acid] | 95% |
| Cc1cc(-c2nc3cnc(Oc4cc(F)ccc4F)nc3o2)cc(C)c1OCC(=O)O [Example 4, {4-[5-(2,5-difluoro-phenoxy)-oxazolo[5,4-d]pyrimidin-2-yl]-2,6-dimethyl-phenoxy}-acetic acid] | 103% |
| Cc1ccc(Oc2ncc3nc(-c4cc(C)c(OCC(=O)O)c(C)c4)oc3n2)c(F)c1 [Example 5, {4-[5-(2-fluoro-4-methyl-phenoxy)-oxazolo[5,4-d]pyrimidin-2-yl]-2,6-dimethyl-phenoxy}-acetic acid] | 101% |
| Cc1cc(-c2nc3cnc(Oc4ccccc4F)nc3o2)cc(C)c1OCC(=O)O [Example 6, {4-[5-(2-fluoro-phenoxy)-oxazolo[5,4-d]pyrimidin-2-yl]-2,6-dimethyl-phenoxy}-acetic acid] | 110% |
| Cc1cc(-c2nc3cnc(Oc4ccccc4F)nc3o2)cc(C)c1OC(C)C(=O)O (stereo not drawn) [Example 7, 2-{4-[5-(2-fluoro-phenoxy)-oxazolo[5,4-d]pyrimidin-2-yl]-2,6-dimethyl-phenoxy}-propionic acid] | 84% |

Other lines, results leading:

| activation at 10 µM | SMILES |
| --- | --- |
| 87% | Cc1ccc(Oc2ncc3nc(-c4cc(C)c(OCC(=O)O)c(C)c4)oc3n2)cc1F [Example 9, {4-[5-(3-fluoro-4-methyl-phenoxy)-oxazolo[5,4-d]pyrimidin-2-yl]-2,6-dimethyl-phenoxy}-acetic acid] |
| 112% | Cc1ccc(F)cc1Oc1ncc2nc(-c3cc(C)c(OCC(=O)O)c(C)c3)oc2n1 [Example 10, {4-[5-(5-fluoro-2-methyl-phenoxy)-oxazolo[5,4-d]pyrimidin-2-yl]-2,6-dimethyl-phenoxy}-acetic acid] |
| 105% | Cc1cc(-c2nc3cnc(Oc4ccc(Cl)cc4)nc3o2)cc(C)c1OCC(=O)O [Example 11, {4-[5-(4-chloro-phenoxy)-oxazolo[5,4-d]pyrimidin-2-yl]-2,6-dimethyl-phenoxy}-acetic acid] |
| 46% | Cc1cc(-c2nc3cnc(OC4CCCC4)nc3o2)cc(C)c1OCC(=O)O [Example 12, [4-(5-cyclopentyloxy-oxazolo[5,4-d]pyrimidin-2-yl)-2,6-dimethyl-phenoxy]-acetic acid] |
